Assay results published in PMC6125496 (Antimicrobial Agents and Chemotherapy, 2018).
Converted amounts (≈) assume the structure as drawn. Where two headings read alike, the source gives them in different places. Non-standard residues stand in square brackets, D forms with d. Residues, ends and D or L forms follow the SMILES beside them. Dab(3S-OH) = NC[C@H](O)[C@H](N)C(=O)O; Phe(2-F) = N[C@@H](Cc1ccccc1F)C(=O)O; ΔZArg = N=C(N)NCC/C=C(\N)C(=O)O; dOrn = NCCC[C@@H](N)C(=O)O; Dab = NCC[C@H](N)C(=O)O

How the values were obtained:
[1] = test system: Enterobacter cloacae KBM15; settings: Ambler class A carbapenemase; KPC-2 + TEM-1 + OXA-9
Excerpt: (§1) Reference strains are from the German Collection of Microorganisms and Cell Cultures (DSMZ), the American Type Culture Collection (ATCC), the National Collection of Type Cultures (NCTC), and the Medical and Molecular Microbiology, Faculty of Science and Medicine, University of Fribourg, Switzerland.

Escherichia coli MON = settings: Ambler class B carbapenemase; NDM-5 + CTX-M15 + TEM-1
Excerpt: as §1

[2] = test system: Enterobacter cloacae 3047; settings: Ambler class B carbapenemase; NDM-1 + CTX-M15 + TEM-1 + OXA-1
Excerpt: as §1

Escherichia coli EGB957 = settings: Ambler class B carbapenemase; VIM-1 + OXA-48 + TEM-1 + CMY-4 + OXA-1
Excerpt: as §1

Escherichia coli COL = settings: Ambler class A carbapenemase; KPC-2 + TEM-1 + CTX-M9
Excerpt: as §1

Escherichia coli PSP = settings: Ambler class A carbapenemase; KPC-2 + TEM-1 + OXA-1
Excerpt: as §1

Enterobacter cloacae YAM = settings: Ambler class D carbapenemase; OXA-48 + CTX-M15 + TEM-1 + OXA-1 + DHA-1
Excerpt: as §1

[3] = test system: Klebsiella pneumoniae LAM; settings: Ambler class B carbapenemase; NDM-4 + SHV-11 + CTX-M15
Excerpt: as §1

[4] = test system: Klebsiella pneumoniae ATCC BAA-2146; settings: Ambler class B carbapenemase; NDM-1 + CTX-M15 + TEM-1 + CMY-6 + OXA-1 + SHV-1
Excerpt: as §1

Escherichia coli GAL = settings: Ambler class B carbapenemase; NDM-6 + OXA-1 + CTX-M15
Excerpt: as §1

Escherichia coli DOV = settings: Ambler class D carbapenemase; OXA-48 + TEM-1 + CTX-M15 + OXA-1
Excerpt: as §1

Enterobacter cloacae BEU = settings: Ambler class D carbapenemase; OXA-48 + CTX-M15 + SHV-12 + TEM-1 + OXA-1 + DHA-1
Excerpt: as §1

[5] = test system: Klebsiella pneumoniae A33504; settings: Ambler class A carbapenemase; KPC-2+ SHV-11 + TEM-1 + CTX-M-2 + OXA-9
Excerpt: as §1

[6] = test system: Ciprofloxacin-resistant E. coli (19); experiment: microbe, parasite or virus in culture
Excerpt: as §1

[7] = test system: Escherichia coli BAA-2471; experiment: microbe, parasite or virus in culture
Excerpt: as §1

[8] = test system: Enterococcus faecium DSM 20477; experiment: microbe, parasite or virus in culture
Excerpt: as §1

[9] = test system: Escherichia coli, colistin-resistant (25)
Excerpt: as §1

[10] = test system: Gentamicin-resistant E. coli (6); settings: 6 gentamicin-resistant isolates
Excerpt: as §1

[11] = test system: Klebsiella pneumoniae, colistin resistant (46)
Excerpt: as §1

in vitro = settings: plasma (EDTA anticoagulant), pH 7.4
Experimental: The […] were performed by Cyprotex Discovery Ltd. (Macclesfield, UK). […] The experiment was performed using equilibrium dialysis (RED device) with the two compartments separated by a semipermeable membrane. Buffer (pH 7.4) was added to one side of the membrane and the plasma solution to the other. After equilibration (4 h), samples were taken from both sides of the membrane. Calibration standards were prepared in plasma and buffer. All incubations were performed in triplicate. A control compound was included in each experiment. Incubation of the control compound samples was terminated with acetonitrile containing an internal standard (metoprolol). Incubation of the test compound samples was terminated with 40% TCA in water containing in internal standard (NOSO-95216; 1 μM final concentration). All samples were centrifuged and further diluted with water prior to analysis. The solutions for each batch of control compounds were combined into two groups (protein free and protein containing) and cassette analyzed by LC-MS/MS using two sets of calibration standards for protein-free (seven points) and protein-containing solutions (seven points).

E. coli EN122 = settings: ESBL, clinical isolate
Experimental: MIC values were determined using Clinical and Laboratory Standards Institute (CLSI) broth microdilution methodology, colony direct suspension, as described in CLSI document M07-A10 ([42]).

[12] = target: Nav 1.5 human sodium ion channel (Homo sapiens, UniProt Q14524); experiment: cell-based
Experimental: Inhibition of the Nav 1.5 human sodium ion channel was determined by Eurofins Panlabs in HEK-293 cells stably transfected with human Nav1.5 cDNA (type V voltage-gated sodium channel alpha subunit, GenBank accession number NM_000335) using IonWorks Quattro automated whole-cell patch clamp electrophysiology. […] In this method, the voltage protocol is applied prior to compound addition (Pre), the compounds are added and incubated for 600 s at room temperature, and then the voltage protocol is applied a final time (Post) on the IonWorks Quattro.

[13] = 19 ciprofloxacin-resistant isolates

Sequence of Nav 1.5 human sodium ion channel (Q14524 1-2015 isoform Q14524-2): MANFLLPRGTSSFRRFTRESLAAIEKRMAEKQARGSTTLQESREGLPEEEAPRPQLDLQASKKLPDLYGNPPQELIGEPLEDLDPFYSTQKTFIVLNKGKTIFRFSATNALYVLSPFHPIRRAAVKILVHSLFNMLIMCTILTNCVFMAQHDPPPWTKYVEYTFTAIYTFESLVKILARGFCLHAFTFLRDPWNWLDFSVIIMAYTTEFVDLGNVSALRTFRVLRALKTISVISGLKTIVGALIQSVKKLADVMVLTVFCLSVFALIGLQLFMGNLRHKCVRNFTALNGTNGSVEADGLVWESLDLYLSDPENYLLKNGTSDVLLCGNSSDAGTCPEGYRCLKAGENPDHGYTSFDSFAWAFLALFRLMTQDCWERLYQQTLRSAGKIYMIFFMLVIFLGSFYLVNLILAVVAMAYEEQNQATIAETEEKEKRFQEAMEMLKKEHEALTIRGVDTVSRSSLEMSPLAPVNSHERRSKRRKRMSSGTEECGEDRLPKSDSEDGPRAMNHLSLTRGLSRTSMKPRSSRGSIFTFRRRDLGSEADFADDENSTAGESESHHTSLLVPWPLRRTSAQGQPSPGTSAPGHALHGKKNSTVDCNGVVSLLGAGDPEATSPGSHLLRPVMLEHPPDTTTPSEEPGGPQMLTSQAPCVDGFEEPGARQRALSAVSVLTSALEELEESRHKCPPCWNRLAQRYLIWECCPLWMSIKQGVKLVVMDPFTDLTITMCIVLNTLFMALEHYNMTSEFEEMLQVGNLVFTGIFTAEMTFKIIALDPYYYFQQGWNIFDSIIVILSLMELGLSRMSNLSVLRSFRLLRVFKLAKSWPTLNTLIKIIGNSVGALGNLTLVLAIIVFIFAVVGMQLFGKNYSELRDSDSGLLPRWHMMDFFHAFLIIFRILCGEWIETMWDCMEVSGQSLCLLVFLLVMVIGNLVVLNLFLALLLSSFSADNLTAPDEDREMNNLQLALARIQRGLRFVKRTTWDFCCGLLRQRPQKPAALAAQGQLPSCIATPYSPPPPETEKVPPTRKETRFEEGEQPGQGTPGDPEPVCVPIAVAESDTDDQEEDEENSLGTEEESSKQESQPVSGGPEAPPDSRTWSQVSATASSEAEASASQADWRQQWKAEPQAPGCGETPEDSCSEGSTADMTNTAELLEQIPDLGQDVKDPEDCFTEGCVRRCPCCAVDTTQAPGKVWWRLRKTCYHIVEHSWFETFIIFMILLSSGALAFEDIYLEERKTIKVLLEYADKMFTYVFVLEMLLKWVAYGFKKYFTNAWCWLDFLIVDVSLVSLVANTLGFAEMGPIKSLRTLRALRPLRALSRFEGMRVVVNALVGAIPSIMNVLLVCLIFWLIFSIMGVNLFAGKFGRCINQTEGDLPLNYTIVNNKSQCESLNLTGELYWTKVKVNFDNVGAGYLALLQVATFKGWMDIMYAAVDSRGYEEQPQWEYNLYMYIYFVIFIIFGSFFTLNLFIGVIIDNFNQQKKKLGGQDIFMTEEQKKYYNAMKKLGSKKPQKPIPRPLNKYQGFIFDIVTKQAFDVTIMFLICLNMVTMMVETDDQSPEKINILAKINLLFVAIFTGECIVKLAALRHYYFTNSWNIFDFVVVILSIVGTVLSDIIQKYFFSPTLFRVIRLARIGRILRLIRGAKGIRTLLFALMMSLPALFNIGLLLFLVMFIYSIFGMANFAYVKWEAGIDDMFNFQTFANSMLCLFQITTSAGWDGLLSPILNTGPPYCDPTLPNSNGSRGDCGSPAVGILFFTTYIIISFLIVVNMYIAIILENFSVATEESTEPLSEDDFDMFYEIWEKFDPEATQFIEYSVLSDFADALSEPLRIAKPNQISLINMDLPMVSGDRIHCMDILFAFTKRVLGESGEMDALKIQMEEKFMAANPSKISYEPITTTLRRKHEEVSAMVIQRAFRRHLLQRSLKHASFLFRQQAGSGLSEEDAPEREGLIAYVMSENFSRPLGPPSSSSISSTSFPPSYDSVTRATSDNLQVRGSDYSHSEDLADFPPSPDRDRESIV

polymyxin B [PMB]
MIC [1]: 0.5 µg/mL
MIC (Escherichia coli MON): 0.5 µg/mL
MIC [2]: 0.5 µg/mL
MIC (Escherichia coli EGB957): 0.5 µg/mL
MIC (Escherichia coli COL): 0.5 µg/mL
MIC (Escherichia coli PSP): 0.5 µg/mL
MIC (Enterobacter cloacae YAM): 1 µg/mL
MIC [3]: 0.5 µg/mL
MIC [4]: 1 µg/mL
MIC (Escherichia coli GAL): 0.25 µg/mL
MIC (Escherichia coli DOV): 0.5 µg/mL
MIC (Enterobacter cloacae BEU): 16 µg/mL
MIC [5]: 0.5 µg/mL
MIC 50% [6, 13]: 0.5 µg/mL
MIC 90% [6, 13]: 1 µg/mL
MIC range [6, 13]: 0.5 to 32 µg/mL
MIC ([7]; Ambler class B carbapenemase, NDM-1): 0.25 µg/mL
MIC ([8]; reference strain): >32 µg/mL

N=C(N)NCC/C=C(\NC(=O)[C@H](CCCCN)NC(=O)[C@H](Cc1ccccc1F)NC(=O)[C@@H]1CCCN1C(=O)[C@@H](CCCN)NC(=O)CNC(=O)[C@H](CCN)NC(=O)[C@@H](NC(=O)[C@@H](N)CCCCN)[C@@H](O)CN)C(=O)O [NOSO-502] (H-K[Dab(3S-OH)][Dab]G[dOrn]P[Phe(2-F)]K[ΔZArg]-OH)
MIC range ([9]; Unknown mechanism (2 isolates)): 1 to 2 µg/mL
MIC range ([9]; mcr-1 (21 isolates)): 1 to 4 µg/mL
MIC range ([9]; mcr-2 (1 isolate)): 1 µg/mL (≈ 0.927 µM)
MIC range ([9]; mcr-3 (1 isolate)): 1 µg/mL (≈ 0.927 µM)
MIC range [10]: 4 µg/mL (≈ 3.71 µM)
MIC range ([11]; Unknown mechanism (1)): 0.5 µg/mL (≈ 0.464 µM)
MIC range ([11]; crrB F84S substitution (1)): 8 µg/mL (≈ 7.42 µM)
MIC range ([11]; crrB G183V substitution (1)): 64 µg/mL (≈ 59.4 µM)
MIC range ([11]; crrB N141Y substitution (1)): 16 µg/mL (≈ 14.8 µM)
MIC range ([11]; crrB P151L substitution (1)): 128 µg/mL (≈ 119 µM)
MIC range ([11]; mcr-1 (1)): 0.5 µg/mL (≈ 0.464 µM)
MIC range ([11]; mgrB IS1R between +44 and +45 (2)): 1 µg/mL (≈ 0.927 µM)
MIC range ([11]; mgrB IS1R into promoter between −45 and −46 (3)): 0.5 to 1 µg/mL
MIC range ([11]; mgrB IS5 between +74 and +75 (4)): 0.5 to 2 µg/mL
MIC range ([11]; mgrB IS903B between +69 and +70 (2)): 0.25 to 1 µg/mL
MIC range ([11]; mgrB ISKpn14 into promoter between −28 and −29 (2)): 0.5 to 2 µg/mL
MIC range ([11]; mgrB ISKpn26-like between +74 and +75 (2)): 1 µg/mL (≈ 0.927 µM)
MIC range ([11]; mgrB M27K substitution (1)): 2 µg/mL (≈ 1.85 µM)
MIC range ([11]; mgrB N42Y and K43I substitutions (1)): 2 µg/mL (≈ 1.85 µM)
MIC range ([11]; mgrB W20R substitution (1)): 0.5 µg/mL (≈ 0.464 µM)
MIC range ([11]; mgrB W47R substitution (1)): 1 µg/mL (≈ 0.927 µM)
MIC range ([11]; mgrB full deletion (5)): 0.5 to 1 µg/mL
MIC range ([11]; mgrB premature termination (6)): 0.5 to 1 µg/mL
MIC range ([11]; phoQ R16C substitution (1)): 2 µg/mL (≈ 1.85 µM)
MIC range ([11]; pmrA G53S substitution (2)): 1 to 2 µg/mL
MIC range ([11]; pmrB L17Q substitution (1)): 1 µg/mL (≈ 0.927 µM)
MIC range ([11]; pmrB T157P substitution (6)): 0.25 to 16 µg/mL
fraction unbound at 4 h, 2 μM (in vitro; dog): 0.176
fraction unbound at 4 h, 2 μM (in vitro; human): 0.187
fraction unbound at 4 h, 2 μM (in vitro; mouse): 0.198
fraction unbound at 4 h, 2 μM (in vitro; rat): 0.205
MIC (E. coli EN122): 4 µg/mL (≈ 3.71 µM)
IC50 [12]: > 512 µM
MIC range ([6]; Ciprofloxacin-resistant (19)): 2 to 32 µg/mL
MIC ([7]; BAA-2471): 4 µg/mL (≈ 3.71 µM)
MIC ([8]; DSM 20477): 64 µg/mL (≈ 59.4 µM)
